Data on 26 molecules can be found in patent publication US10501461B2, “Tyrosine amide derivatives as Rho-kinase inhibitors” (CHIESI FARMACEUTICI S.P.A., priority 2017, dated 2019).

Molecules are shown by their SMILES.

One experiment deals with Rho kinase 2 (ROCK-II) (Homo sapiens, UniProt O75116). Nature of the experiment: In vitro Rho kinase inhibitory activity assay (ADP-Glo), Rho kinase 2. Type of experiment: biochemical. As to conditions: 10 μM ATP, 25° C., expressed as range of activity. In a few lines: (§1)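 Each kinase (ROCK1 or ROCK2) sat with compound for 30 min at 25 °C before 10 μM ATP started a 1 h reaction on 2.5 μM myelin basic protein (Tris pH 7.5, MgCl2, BSA, DTT, 1% DMSO). ADP formed was read by ADP-Glo luminescence. Dose-response IC50s were converted to Ki by Cheng-Prusoff.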

Another experiment concerns the target Rho kinase 1 (ROCK-I) (Homo sapiens, UniProt Q13464). Kind of experiment: In vitro Rho kinase inhibitory activity assay (ADP-Glo), Rho kinase 1. It is filed as biochemical. The conditions noted are these: 10 μM ATP, 25° C., expressed as range of activity. In a few lines:
as §1

Chain of Rho kinase 2 (ROCK-II) (O75116 whole entry): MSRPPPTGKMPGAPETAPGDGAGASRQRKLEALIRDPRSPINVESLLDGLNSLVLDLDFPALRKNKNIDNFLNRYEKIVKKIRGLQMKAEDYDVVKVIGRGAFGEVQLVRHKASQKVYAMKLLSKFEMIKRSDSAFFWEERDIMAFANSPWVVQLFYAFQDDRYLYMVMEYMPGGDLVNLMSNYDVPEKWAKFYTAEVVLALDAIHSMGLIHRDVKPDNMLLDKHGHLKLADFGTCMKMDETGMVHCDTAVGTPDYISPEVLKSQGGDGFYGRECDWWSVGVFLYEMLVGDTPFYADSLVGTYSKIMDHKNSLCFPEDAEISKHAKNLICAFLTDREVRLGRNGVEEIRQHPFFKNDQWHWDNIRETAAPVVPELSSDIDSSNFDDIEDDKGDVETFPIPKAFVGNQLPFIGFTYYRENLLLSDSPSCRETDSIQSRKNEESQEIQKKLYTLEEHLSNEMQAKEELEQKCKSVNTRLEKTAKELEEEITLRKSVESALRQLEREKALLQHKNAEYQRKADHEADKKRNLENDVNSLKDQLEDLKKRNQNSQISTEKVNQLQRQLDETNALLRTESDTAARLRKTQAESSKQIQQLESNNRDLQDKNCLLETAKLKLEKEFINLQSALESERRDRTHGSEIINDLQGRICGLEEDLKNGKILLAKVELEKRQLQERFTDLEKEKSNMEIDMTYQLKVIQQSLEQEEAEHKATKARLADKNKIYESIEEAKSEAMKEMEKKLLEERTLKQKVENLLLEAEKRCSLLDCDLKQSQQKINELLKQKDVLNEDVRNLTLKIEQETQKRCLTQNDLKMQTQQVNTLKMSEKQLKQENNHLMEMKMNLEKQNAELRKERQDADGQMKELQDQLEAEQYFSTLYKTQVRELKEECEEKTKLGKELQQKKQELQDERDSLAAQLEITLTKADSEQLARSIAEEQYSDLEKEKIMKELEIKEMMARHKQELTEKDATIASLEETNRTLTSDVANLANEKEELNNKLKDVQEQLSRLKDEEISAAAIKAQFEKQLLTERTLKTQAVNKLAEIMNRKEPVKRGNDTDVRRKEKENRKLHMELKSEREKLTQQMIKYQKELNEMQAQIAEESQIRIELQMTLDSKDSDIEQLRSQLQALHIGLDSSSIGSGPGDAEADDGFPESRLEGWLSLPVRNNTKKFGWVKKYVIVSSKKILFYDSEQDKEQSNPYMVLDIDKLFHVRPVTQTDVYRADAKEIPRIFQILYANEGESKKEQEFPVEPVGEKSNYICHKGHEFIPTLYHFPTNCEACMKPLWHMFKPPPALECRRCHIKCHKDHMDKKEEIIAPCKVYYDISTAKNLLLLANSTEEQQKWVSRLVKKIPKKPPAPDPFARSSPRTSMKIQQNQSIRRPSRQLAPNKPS
Chain of Rho kinase 1 (ROCK-I) (Q13464 whole entry): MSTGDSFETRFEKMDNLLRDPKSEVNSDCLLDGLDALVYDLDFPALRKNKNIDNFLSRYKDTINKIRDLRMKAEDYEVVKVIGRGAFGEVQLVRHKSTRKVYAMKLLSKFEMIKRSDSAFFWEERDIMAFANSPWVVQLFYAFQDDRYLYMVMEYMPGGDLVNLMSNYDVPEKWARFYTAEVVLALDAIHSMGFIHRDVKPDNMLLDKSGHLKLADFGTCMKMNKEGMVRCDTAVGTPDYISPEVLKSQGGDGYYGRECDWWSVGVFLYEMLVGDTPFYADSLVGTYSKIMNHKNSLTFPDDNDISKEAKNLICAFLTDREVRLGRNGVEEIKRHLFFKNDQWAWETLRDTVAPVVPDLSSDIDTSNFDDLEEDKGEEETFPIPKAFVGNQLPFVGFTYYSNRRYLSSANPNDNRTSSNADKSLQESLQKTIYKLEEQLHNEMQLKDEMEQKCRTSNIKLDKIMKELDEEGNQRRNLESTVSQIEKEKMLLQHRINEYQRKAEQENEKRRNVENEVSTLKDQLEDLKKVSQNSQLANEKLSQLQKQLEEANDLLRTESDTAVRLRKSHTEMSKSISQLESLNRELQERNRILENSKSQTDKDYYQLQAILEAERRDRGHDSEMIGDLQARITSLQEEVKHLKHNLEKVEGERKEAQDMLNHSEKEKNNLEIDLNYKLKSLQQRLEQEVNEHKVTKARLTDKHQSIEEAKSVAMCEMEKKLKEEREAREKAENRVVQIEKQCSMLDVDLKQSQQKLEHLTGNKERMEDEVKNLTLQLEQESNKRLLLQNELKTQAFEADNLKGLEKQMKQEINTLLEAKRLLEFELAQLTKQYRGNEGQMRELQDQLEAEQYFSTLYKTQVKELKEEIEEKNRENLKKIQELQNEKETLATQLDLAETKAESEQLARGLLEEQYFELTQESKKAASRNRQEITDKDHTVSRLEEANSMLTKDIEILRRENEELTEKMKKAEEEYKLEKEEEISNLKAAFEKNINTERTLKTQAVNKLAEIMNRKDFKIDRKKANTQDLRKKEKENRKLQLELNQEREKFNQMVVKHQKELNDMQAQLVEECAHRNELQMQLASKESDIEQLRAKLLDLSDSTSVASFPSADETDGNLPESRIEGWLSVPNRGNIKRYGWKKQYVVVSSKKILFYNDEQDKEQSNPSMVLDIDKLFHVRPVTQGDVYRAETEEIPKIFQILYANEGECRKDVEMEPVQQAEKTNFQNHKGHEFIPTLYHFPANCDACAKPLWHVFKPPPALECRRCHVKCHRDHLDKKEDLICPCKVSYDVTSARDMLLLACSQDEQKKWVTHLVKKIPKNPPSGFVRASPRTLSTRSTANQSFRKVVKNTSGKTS

Usually Ki stands for a measure of affinity in units of concentration, obtained from inhibition or displacement. A higher Ki goes with weaker binding. Turning to `Cc1c[nH]c2nccc(Oc3ccc(CC(N)C(=O)Nc4ccncc4)cc3F)c12` (stereo not shown) [Example 71, 2-amino-3-(3-fluoro-4-((3-methyl-1H-pyrrolo[2,3-b]pyridin-4-yl)oxy)phenyl)-N-(pyridin-4-yl)propanamide], the inhibition constant Ki at Rho kinase 2 (ROCK-II) and on Rho kinase 1 (ROCK-I) was below 3 nM throughout.
As to `Cc1c[nH]c2nccc(Oc3ccc(CC(N)C(=O)Nc4cccc5cnccc45)cc3F)c12` (stereo not shown) [Example 78, 2-amino-3-(3-fluoro-4-((3-methyl-1H-pyrrolo[2,3-b]pyridin-4-yl)oxy)phenyl)-N-(isoquinolin-5-yl)propanamide], the inhibition constant Ki on Rho kinase 2 (ROCK-II) and on Rho kinase 1 (ROCK-I) was below 3 nM in each case.
`Cc1c[nH]c2nccc(Oc3ccc(CC(N)C(=O)N4CCn5cncc5C4)cc3F)c12` (stereo not shown) [Example 81, 2-amino-1-(5,6-dihydroimidazo[1,5-a]pyrazin-7(8H)-yl)-3-(3-fluoro-4-((3-methyl-1H-pyrrolo[2,3-b]pyridin-4-yl)oxy)phenyl)propan-1-one]: the inhibitory constant (Ki) at Rho kinase 2 (ROCK-II) and on Rho kinase 1 (ROCK-I) was below 3 nM in each case.
Turning to `Cc1c[nH]c2nccc(Oc3ccc(CC(N)C(=O)NC4CCN(Cc5ccccc5)CC4)cc3F)c12` (stereo not shown) [Example 83, 2-amino-N-(1-benzylpiperidin-4-yl)-3-(3-fluoro-4-((3-methyl-1H-pyrrolo[2,3-b]pyridin-4-yl)oxy)phenyl)propanamide], the Ki at Rho kinase 2 (ROCK-II) and at Rho kinase 1 (ROCK-I) was below 3 nM in each case.
Turning to `Cc1c[nH]c2nccc(Oc3ccc(CC(N)C(=O)NCCCN4CCOCC4)cc3F)c12` (stereo not shown) [Example 79, 2-amino-3-(3-fluoro-4-((3-methyl-1H-pyrrolo[2,3-b]pyridin-4-yl)oxy)phenyl)-N-(3-morpholinopropyl)propanamide], the Ki at Rho kinase 2 (ROCK-II) and on Rho kinase 1 (ROCK-I) was below 3 nM in each case.
As for `Cc1noc(C2CCN(C(=O)[C@@H](N)Cc3ccc(Oc4ccnc5[nH]cc(C)c45)c(F)c3)C2)n1` (stereo partly drawn) [Example 8, (2S)-2-amino-3-(3-fluoro-4-((3-methyl-1H-pyrrolo[2,3-b]pyridin-4-yl)oxy)phenyl)-1-(3-(3-methyl-1,2,4-oxadiazol-5-yl)pyrrolidin-1-yl)propan-1-one], the Ki on Rho kinase 2 (ROCK-II) and at Rho kinase 1 (ROCK-I) was below 3 nM each time.
As to `N[C@H](Cc1ccc(Oc2ccnc3[nH]ccc23)cc1)C(=O)NCC1CCCCC1` [Example 108, (R)-3-(4-((1H-pyrrolo[2,3-b]pyridin-4-yl)oxy)phenyl)-2-amino-N-(cyclohexylmethyl)propanamide], the inhibitory constant (Ki) at Rho kinase 2 (ROCK-II) and at Rho kinase 1 (ROCK-I) was 3 to 30 nM throughout.
For the molecule `Cc1c[nH]c2nccc(Oc3ccc(C[C@H](N)C(=O)NC4CN(C)C4)cc3F)c12` [Example 42, (S)-2-amino-3-(3-fluoro-4-((3-methyl-1H-pyrrolo[2,3-b]pyridin-4-yl)oxy)phenyl)-N-(1-methylazetidin-3-yl)propanamide], the inhibition constant Ki at Rho kinase 2 (ROCK-II) and on Rho kinase 1 (ROCK-I) was below 3 nM throughout.
Regarding `Cc1c[nH]c2nccc(Oc3ccc(C[C@H](N)C(=O)Nc4ccccc4)cc3F)c12` [Example 145, (S)-2-amino-3-(3-fluoro-4-((3-methyl-1H-pyrrolo[2,3-b]pyridin-4-yl)oxy)phenyl)-N-phenylpropanamide], the inhibition constant Ki at Rho kinase 2 (ROCK-II) and on Rho kinase 1 (ROCK-I) was below 3 nM each time.
`Cc1c[nH]c2nccc(Oc3ccc(CC(N)C(=O)N4CCN(Cc5ccccc5)CC4)cc3F)c12` (stereo not shown) [Example 132, 2-amino-1-(4-benzylpiperazin-1-yl)-3-(3-fluoro-4-((3-methyl-1H-pyrrolo[2,3-b]pyridin-4-yl)oxy)phenyl)propan-1-one]: the Ki on Rho kinase 2 (ROCK-II) and at Rho kinase 1 (ROCK-I) was below 3 nM in each case.
With `Cc1c[nH]c2nccc(Oc3ccc(C[C@H](N)C(=O)NC4(CO)CCN(C)CC4)cc3F)c12` [Example 37, (S)-2-amino-3-(3-fluoro-4-((3-methyl-1H-pyrrolo[2,3-b]pyridin-4-yl)oxy)phenyl)-N-(4-(hydroxymethyl)-1-methylpiperidin-4-yl)propanamide], the inhibition constant Ki on Rho kinase 2 (ROCK-II) and at Rho kinase 1 (ROCK-I) was below 3 nM each time.
With `Cc1c[nH]c2ncnc(Oc3ccc(C[C@H](N)C(=O)N4C[C@@H](C)N(C)[C@@H](C)C4)cc3F)c12` [Example 129, (S)-2-amino-3-(3-fluoro-4-((5-methyl-7H-pyrrolo[2,3-d]pyrimidin-4-yl)oxy)phenyl)-1-((3S,5R)-3,4,5-trimethylpiperazin-1-yl)propan-1-one], the Ki on Rho kinase 2 (ROCK-II) and on Rho kinase 1 (ROCK-I) was below 3 nM each time.
In the case of `Cc1c[nH]c2nccc(Oc3ccc(C[C@H](N)C(=O)N4CCN(Cc5ccccn5)CC4)cc3F)c12` [Example 27, (S)-2-amino-3-(3-fluoro-4-((3-methyl-1H-pyrrolo[2,3-b]pyridin-4-yl)oxy)phenyl)-1-(4-(pyridin-2-ylmethyl)piperazin-1-yl)propan-1-one], the Ki at Rho kinase 2 (ROCK-II) and on Rho kinase 1 (ROCK-I) was below 3 nM each time.
On to `Cc1c[nH]c2nccc(Oc3ccc(C[C@@H](N)C(=O)NC4CCOCC4)cc3F)c12` [Example 55, (R)-2-amino-3-(3-fluoro-4-((3-methyl-1H-pyrrolo[2,3-b]pyridin-4-yl)oxy)phenyl)-N-(tetrahydro-2H-pyran-4-yl)propanamide], for which the Ki at Rho kinase 2 (ROCK-II) and at Rho kinase 1 (ROCK-I) was 3 to 30 nM each time.
Regarding `N[C@@H](Cc1ccc(Oc2ccnc3[nH]ccc23)cc1)C(=O)Nc1nccs1` [Example 105, (S)-3-(4-((1H-pyrrolo[2,3-b]pyridin-4-yl)oxy)phenyl)-2-amino-N-(thiazol-2-yl)propanamide], the Ki on Rho kinase 2 (ROCK-II) and on Rho kinase 1 (ROCK-I) was 3 to 30 nM each time.
Consider `Cc1c[nH]c2nccc(Oc3ccc(CC(N)C(=O)NCCc4ccccn4)cc3F)c12` (stereo not shown) [Example 69, 2-amino-3-(3-fluoro-4-((3-methyl-1H-pyrrolo[2,3-b]pyridin-4-yl)oxy)phenyl)-N-(2-(pyridin-2-yl)ethyl)propanamide], for which the inhibitory constant (Ki) on Rho kinase 2 (ROCK-II) and at Rho kinase 1 (ROCK-I) was below 3 nM in each case.
With `N[C@@H](Cc1ccc(Oc2ccnc3[nH]cc(-c4cccnc4)c23)cc1)C(=O)N1CCN(Cc2ccccc2)CC1` [Example 194, (S)-2-amino-1-(4-benzylpiperazin-1-yl)-3-(4-((3-(pyridin-3-yl)-1H-pyrrolo[2,3-b]pyridin-4-yl)oxy)phenyl)propan-1-one], the inhibitory constant (Ki) on Rho kinase 2 (ROCK-II) and on Rho kinase 1 (ROCK-I) was below 3 nM in each case.
On to `N[C@@H](Cc1ccc(Oc2ccnc3[nH]cc(C4CC4)c23)cc1)C(=O)NC1CCCCC1` [Example 203, (S)-2-amino-N-cyclohexyl-3-(4-((3-cyclopropyl-1H-pyrrolo[2,3-b]pyridin-4-yl)oxy)phenyl)propanamide], for which the Ki on Rho kinase 2 (ROCK-II) and on Rho kinase 1 (ROCK-I) was below 3 nM each time.
In the case of `Cc1c[nH]c2nccc(Oc3ccc(C[C@H](N)C(=O)NC4(CN(C)C)CCCCC4)cc3F)c12` [Example 38, (S)-2-amino-N-(1-((dimethylamino)methyl)cyclohexyl)-3-(3-fluoro-4-((3-methyl-1H-pyrrolo[2,3-b]pyridin-4-yl)oxy)phenyl)propanamide], the Ki at Rho kinase 2 (ROCK-II) and at Rho kinase 1 (ROCK-I) was below 3 nM throughout.
Regarding `Cc1c[nH]c2nccc(Oc3ccc(C[C@H](N)C(=O)N4CCN(Cc5ccc(OCCCN(C)C)cc5)CC4)cc3F)c12` [Example 160, (S)-2-amino-1-(4-(4-(3-(dimethylamino)propoxy)benzyl)piperazin-1-yl)-3-(3-fluoro-4-((3-methyl-1H-pyrrolo[2,3-b]pyridin-4-yl)oxy)phenyl)propan-1-one], the Ki on Rho kinase 2 (ROCK-II) and on Rho kinase 1 (ROCK-I) was below 3 nM in each case.
On to `Cc1c[nH]c2nccc(Oc3ccc(C[C@H](N)C(=O)N4CCN(C(=O)c5cccc(CN(C)C)c5)CC4)cc3F)c12` [Example 173, (S)-2-amino-1-(4-(3-((dimethylamino)methyl)benzoyl)piperazin-1-yl)-3-(3-fluoro-4-((3-methyl-1H-pyrrolo[2,3-b]pyridin-4-yl)oxy)phenyl)propan-1-one], for which the Ki at Rho kinase 2 (ROCK-II) and at Rho kinase 1 (ROCK-I) was below 3 nM each time.
Consider `Cc1c[nH]c2nccc(Oc3ccc(CC(N)C(=O)N4CCN(C)CC4CO)cc3F)c12` (stereo not shown) [Example 64, 2-amino-3-(3-fluoro-4-((3-methyl-1H-pyrrolo[2,3-b]pyridin-4-yl)oxy)phenyl)-1-(2-(hydroxymethyl)-4-methylpiperazin-1-yl)propan-1-one], for which the inhibitory constant (Ki) at Rho kinase 2 (ROCK-II) was below 3 nM; on Rho kinase 1 (ROCK-I), 3 to 30 nM.
As for `Cc1c[nH]c2nccc(Oc3ccc(C[C@H](N)C(=O)N(C)C4CCCCC4)cc3)c12` [Example 134, (S)-2-amino-N-cyclohexyl-N-methyl-3-(4-((3-methyl-1H-pyrrolo[2,3-b]pyridin-4-yl)oxy)phenyl)propanamide], the Ki at Rho kinase 2 (ROCK-II) and on Rho kinase 1 (ROCK-I) was below 3 nM in each case.
On to `Cc1c[nH]c2nccc(Oc3ccc(CC(N)C(=O)N4CCN(Cc5ccccc5)CC4)cc3F)c12` (single isomer, unassigned) [Example 132B, 2-amino-1-(4-benzylpiperazin-1-yl)-3-(3-fluoro-4-((3-methyl-1H-pyrrolo[2,3-b]pyridin-4-yl)oxy)phenyl)propan-1-one], for which the figures for the Ki on Rho kinase 2 (ROCK-II) and at Rho kinase 1 (ROCK-I) were below 3 nM and 3 to 30 nM, respectively.
The matching figures for `Cc1c[nH]c2ncnc(Oc3ccc(C[C@H](N)C(=O)NC4CCOCC4)cc3F)c12` [Example 125, (S)-2-amino-3-(3-fluoro-4-((5-methyl-7H-pyrrolo[2,3-d]pyrimidin-4-yl)oxy)phenyl)-N-(tetrahydro-2H-pyran-4-yl)propanamide]: 3 to 30 nM and 3 to 30 nM.
The matching figures for `Cc1c[nH]c2nccc(Oc3ccc(CC(N)C(=O)NCC4CCN(Cc5ccccc5)CC4)cc3F)c12` (stereo not shown) [Example 82, 2-amino-N-((1-benzylpiperidin-4-yl)methyl)-3-(3-fluoro-4-((3-methyl-1H-pyrrolo[2,3-b]pyridin-4-yl)oxy)phenyl)propanamide]: below 3 nM and below 3 nM.
